In patent US20240391932A1, “COMPOUNDS, COMPOSITIONS AND METHODS” (Nico Therapeutics, Inc., priority 2021, published 2024):

Tested on: NLRP3
Test: IL-1β secretion assay in PMA-differentiated, LPS/nigericin-stimulated THP-1 cells (ELISA)
Type: cell-based
Conditions: Homo sapiens, 25 ng/mL LPS, nigericin
Procedure: Compounds as provided herein were tested in the following assay. Cell culture medium employed contained RPMI 1640 medium (89%), FBS (10%), Pen/Strep (1%), and 2-mercaptoethanol (0.05 mM). Freezing medium was made up of 90% FBS and 10% DMSO. THP-1 cells were removed from the liquid nitrogen and placed into a 37° C. water bath to thaw, until signs of ice dissipated. The cells were then added to 9 mL of warm cell culture medium and centrifuged for 5 minutes at 1000 rpm. The supernatant was discarded, and the cells were resuspended in new cell culture medium. THP-1 cells were then split and cultured in the cell culture medium, being passaged every 2-3 days with the cell density will be maintained between 5×10^5 and 1.5×10^6 viable cells/mL.
PMA was dissolved in DMSO to make a stock solution at 5 mg/ml and stored in 10 μl aliquots at −20° C. for single use. PMA is added to normal growth medium. LPS was diluted with 1 mL of water solution to provide a 1 mg/mL stock solution and stored in 15 μl aliquots at −20° C. for single use. Nigericin is diluted in ice cold 100% ethanol to 5 mg/ml (6.7 mM) and stored in 75 μL aliquots at −20° C. for single use. Serum-free media contains RPMI 1640 medium (99%), Pen/Strep (1%), and 2-mercaptoethanol (0.05 mM). The two control conditions used to qualify and normalize test compound dose-response curves were as follows: High Control=25 ng/mL LPS, 5 μM Nigericin, 0.5% DMSO, Low Control=25 ng/ml, LPS, 0.5% DMSO.
THP-1 cells were diluted to provide a suspension at a concentration of 1.0×10^6 cells/mL with the total volume of suspension required to enable the desired number of assay plates. The growth media was supplemented with PMA (5 ng/mL final concentration) and the cells were incubated at 37° C. under a humidified atmosphere of 5% CO2 for 40 h.
All media was carefully aspirated from each culture flask. The cells were washed carefully with 1× DPBS. The cells were then briefly digested with trypsin LE for 5 minutes at 23° C. and immediately resuspended in cell growth media. After resuspension, the cells were centrifuged at 1000 rpm for 3 minutes and the supernatant was discarded. The cells were resuspended in DPBS and once again centrifuged at 1000 rpm for 5 minutes. The supernatant was discarded and the cell pellet was resuspended in serum-free media supplemented with LPS (25 ng/mL final concentration) to enable the distribution of 30K THP-1 cells within 45 μL of media into each well of 384-well PDL-coated plates. The 384-well plates were then incubated at 37° C. under a humidified atmosphere of 5% CO2 for 2 h. Following this period, test compounds were dispensed by Tecan across the desired concentration range with all wells normalized to a final 0.5% DMSO concentration. The plates were then then incubated at 37° C. under a humidified atmosphere of 5% CO2 for 1 h. Following this period, 5 μL of the 5 mg/mL nigericin stock solution was added to each of the appropriate wells and plates were centrifuged at 1000 rpm for 30 seconds. The plates were the immediately reintroduced to the incubator at 37° C. under a humidified atmosphere of 5% CO2 for 2 h. After this time, 35 μL/well of supernatant was collected and transferred into v-bottom plate and centrifuged at 1000 rpm for 1 minute. These supernatant aliquots were analyzed using an IL-Iβ detection kit as described below. If needed, the test samples could be snap frozen and stored at −80° C. until analyzed.
To prepare each ELISA plate, capture antibody (mAb Mt175) was diluted with PBS to a final concentration of 2 μg/mL and then 20 μL of this solution was added to each well of the ELISA plate. Each plate was allowed to incubate overnight at 4° C. The next day, the capture antibody solution was removed and discarded. Each ELISA plate was washed 4 times with PBST followed by the addition of 25 uL/well of blocking buffer (Licor-927-40010) supplemented with 0.1% Tween 20. Each ELISA plate was then allowed to incubate for 1 hour at 23° C. […]

SMILES	IC50 [nM]	IC50 (class symbol) [nM]
CC1(O)CC(NC(=O)Cn2nc(C(F)F)n3c(cc4sccc43)c2=O)C1 (stereo not drawn) [Example 3, 2-(5-(difluoromethyl)-8-oxothieno[2′,3′:4,5]pyrrolo[1,2-d][1,2,4]triazin-7(8H)-yl)-N-(3-cis-hydroxy-3-methylcyclobutyl)acetamide]	101	< 10000
N#Cc1cnc(NC(=O)Cn2nc(C(F)F)n3c(cc4sccc43)c2=O)c(F)c1 [Example 4, N-(5-cyano-3-fluoropyridin-2-yl)-2-[12-(difluoromethyl)-9-oxo-5-thia-1,10,11-triazatricyclo[6.4.0.02,6]dodeca-2(6),3,7,11-tetraen-10-yl]acetamide]	252	< 10000
O=C(Cn1nc(C(F)F)n2c(cc3sccc32)c1=O)Nc1ncc(F)cn1 [Example 1, 2-(5-(difluoromethyl)-8-oxothieno[2′,3′:4,5]pyrrolo[1,2-d][1,2,4]triazin-7(8H)-yl)-N-(5-fluoropyrimidin-2-yl)acetamide]	162	< 10000
O=C(Cn1nc(C(F)F)n2c(cc3sccc32)c1=O)Nc1ncccn1 [Example 2, 2-(5-(difluoromethyl)-8-oxothieno[2′,3′:4,5]pyrrolo[1,2-d][1,2,4]triazin-7(8H)-yl)-N-(pyrimidin-2-yl)acetamide]	341	< 10000

Second part, the compound after the results:

IC50 [nM]	IC50 (class symbol) [nM]	SMILES
149	< 10000	O=C(Cn1nc(C(F)F)n2c(cc3scnc32)c1=O)Nc1ncc(F)cn1 [Example 6, 2-(5-(difluoromethyl)-8-oxothiazolo[5′,4′:4,5]pyrrolo[1,2-d][1,2,4]triazin-7(8H)-yl)-N-(5-fluoropyrimidin-2-yl)acetamide]
94	< 10000	O=C(Cn1nc(CF)n2c(cc3sccc32)c1=O)Nc1ncc(F)cn1 [Example 5, 2-(5-(fluoromethyl)-8-oxothieno[2′,3′:4,5]pyrrolo [1,2-d][1,2,4]triazin-7(8H)-yl)-N-(5-fluoropyrimidin-2-yl)acetamide]
